The text below walks through data of paper PMC11233587, “Design, synthesis, in vitro, and in silico anti-α-glucosidase assays of N-phenylacetamide-1,2,3-triazole-indole-2-carboxamide derivatives as new anti-diabetic agents” (Scientific Reports, 2024).

Entries after “also recorded” stand apart in the source; their conditions may differ. Where two headings read alike, the source gives them in different places.

For one data set, the target named is yeast α-glucosidase (Saccharomyces cerevisiae, UniProt P53341). As to the kind of experiment: biochemical. The class given is biochemical.
For data set [1], the target named is T1, α-amylase (pancreatic form) (Homo sapiens, UniProt P04746).
T1 sequence (P04746 16-511): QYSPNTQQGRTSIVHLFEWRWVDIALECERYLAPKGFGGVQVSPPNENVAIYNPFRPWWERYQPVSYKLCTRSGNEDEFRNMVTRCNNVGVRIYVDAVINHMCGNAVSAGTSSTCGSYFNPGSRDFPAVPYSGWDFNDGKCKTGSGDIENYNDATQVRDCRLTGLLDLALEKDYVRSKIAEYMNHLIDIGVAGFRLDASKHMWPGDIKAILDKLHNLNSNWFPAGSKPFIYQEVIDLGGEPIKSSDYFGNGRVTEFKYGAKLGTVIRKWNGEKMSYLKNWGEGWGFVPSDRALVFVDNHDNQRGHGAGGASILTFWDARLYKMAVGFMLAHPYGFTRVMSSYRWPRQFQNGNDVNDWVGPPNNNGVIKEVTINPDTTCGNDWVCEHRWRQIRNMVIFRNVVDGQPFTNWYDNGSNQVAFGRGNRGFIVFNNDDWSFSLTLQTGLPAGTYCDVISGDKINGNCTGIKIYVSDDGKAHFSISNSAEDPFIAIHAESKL
The data set can be described thus: α-Amylase inhibition assay. The class given is biochemical. As to conditions: read-out: IC50 against α-amylase. On the procedure:
Inhibitory activity of the most poten new α-glucosidase inhibitors 5k, 5j, and 5f was evaluated against α-amylase (pancreatic form)[15].
(Supplementary Information S1).

The target of data set [2] is α-glucosidase. On the set-up: method as in doi:10.1007/s00044-020-02603-7. As to conditions: template compounds A, read-out: IC50 for Compounds A (Fig. 3); cited from earlier work.
Data set [3] concerns the target α-glucosidase (Saccharomyces cerevisiae, UniProt P53341). As to the kind of experiment: Kinetics of α-glucosidase inhibition (Lineweaver–Burk plot and secondary plot). Format: biochemical, yeast. The text has this:
As the result, with increasing concentration of compound 5k, Vmax values remained constant while Km values increased.
In vitro assays (inhibition effects and kinetics) of the new compounds 5a–n performed according to pervious reported work[15] (Supplementary Information S1).

Where [4] appears, read: read-out: IC50 against α-glucosidase.

As usually defined, the melting point is the temperature of the solid-liquid transition. One may read the IC50 as the concentration at which inhibition is half-maximal. As usually defined, the Ki is the equilibrium dissociation constant of an inhibitor or competing ligand from its target.

α-glucosidase (Saccharomyces cerevisiae, UniProt P53341), sequence (P53341 whole entry): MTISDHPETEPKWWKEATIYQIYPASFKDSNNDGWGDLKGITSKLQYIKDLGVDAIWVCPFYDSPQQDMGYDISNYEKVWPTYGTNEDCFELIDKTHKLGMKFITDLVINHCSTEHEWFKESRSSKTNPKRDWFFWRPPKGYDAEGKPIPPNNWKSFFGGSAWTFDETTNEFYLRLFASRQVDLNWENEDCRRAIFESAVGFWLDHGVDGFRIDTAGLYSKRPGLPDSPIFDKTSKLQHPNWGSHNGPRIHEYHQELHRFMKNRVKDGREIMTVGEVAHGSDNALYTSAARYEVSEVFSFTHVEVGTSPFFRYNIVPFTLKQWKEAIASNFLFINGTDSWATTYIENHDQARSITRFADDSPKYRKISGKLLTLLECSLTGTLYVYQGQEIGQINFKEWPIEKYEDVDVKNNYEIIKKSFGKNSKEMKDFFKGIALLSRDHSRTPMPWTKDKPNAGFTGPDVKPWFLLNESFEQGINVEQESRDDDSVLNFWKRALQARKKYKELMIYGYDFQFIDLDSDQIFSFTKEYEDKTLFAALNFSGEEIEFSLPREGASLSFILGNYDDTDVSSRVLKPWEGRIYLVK
yeast α-glucosidase, sequence (P53341 whole entry): as above

As for `Cc1cccc(NC(=O)Cn2cc(CNC(=O)c3cc4ccccc4[nH]3)nn2)c1C` [Compound 5d, N-((1-(2-((2,3-dimethylphenyl)amino)-2-oxoethyl)-1H-1,2,3-triazol-4-yl)methyl)-1H-indole-2-carboxamide], the melting point lay within 205 to 207 °C. In addition, the half-inhibitory concentration (IC50) on yeast α-glucosidase (setting [4]) was found to be 66 ± 1.8 µM.
In turn, `O=C(Cn1cc(CNC(=O)c2cc3ccccc3[nH]2)nn1)Nc1ccc(Cl)cc1Cl` [Compound 5j, N-((1-(2-((2,4-dichlorophenyl)amino)-2-oxoethyl)-1H-1,2,3-triazol-4-yl)methyl)-1H-indole-2-carboxamide] had a melting point of 233 to 235 °C. Moreover, at yeast α-glucosidase (setting [4]), the IC50 was 39.6 ± 1.4 µM. Moreover, the IC50 in data set [1] was above 150 µM.
For the molecule `COc1ccc(NC(=O)Cn2cc(CNC(=O)c3cc4ccccc4[nH]3)nn2)cc1` [Compound 5g, N-((1-(2-((4-methoxyphenyl)amino)-2-oxoethyl)-1H-1,2,3-triazol-4-yl)methyl)-1H-indole-2-carboxamide], the melting point lay in the range of 209 to 211 °C. This molecule also registered a 50% inhibitory concentration (IC50) against yeast α-glucosidase of 83 ± 0.7 µM.
Molecule `O=C(Cn1cc(CNC(=O)c2cc3ccccc3[nH]2)nn1)Nc1ccccc1` [Compound 5a, N-((1-(2-oxo-2-(phenylamino)ethyl)-1H-1,2,3-triazol-4-yl)methyl)-1H-indole-2-carboxamide] showed a melting point of 216 to 218 °C. On yeast α-glucosidase, this molecule registered a half-inhibitory concentration (IC50) of 62.9 ± 0.3 µM.
The corresponding values for `Cc1cccc(NC(=O)Cn2cc(CNC(=O)c3cc4ccccc4[nH]3)nn2)c1` [Compound 5b, N-((1-(2-oxo-2-(m-tolylamino)ethyl)-1H-1,2,3-triazol-4-yl)methyl)-1H-indole-2-carboxamide] are 224 to 226 °C and 63.6 ± 1.1 µM.
Regarding `O=C(Cn1cc(CNC(=O)c2c3ccccc3nc3ccccc23)nn1)Nc1ccc(Br)cc1` [Compounds A, R = 4-Br], at α-glucosidase [2], the half-inhibitory concentration (IC50) is 269 ± 2.8 µM.
As to `O=C(Cn1cc(CNC(=O)c2c3ccccc3nc3ccccc23)nn1)Nc1ccc([N+](=O)[O-])cc1` [Compounds A, R = 4-NO2], on α-glucosidase [2], the half-maximal inhibitory concentration (IC50) is 152 ± 1.7 µM.
In the case of `Cc1ccc(NC(=O)Cn2cc(CNC(=O)c3c4ccccc4nc4ccccc34)nn2)cc1` [Compounds A, R = 4-Me], the IC50 at α-glucosidase [2] was 519 ± 6.7 µM.
As to `O=C(Cn1cc(CNC(=O)c2c3ccccc3nc3ccccc23)nn1)Nc1ccc(Cl)cc1` [Compounds A, R = 4-Cl], the IC50 at α-glucosidase [2] was 309 ± 3.4 µM.
With `Cc1cc([N+](=O)[O-])ccc1NC(=O)Cn1cc(CNC(=O)c2cc3ccccc3[nH]2)nn1` [Compound 5n, N-((1-(2-((2-methyl-4-nitrophenyl)amino)-2-oxoethyl)-1H-1,2,3-triazol-4-yl)methyl)-1H-indole-2-carboxamide], the melting point fell in the range of 229 to 231 °C. Further, the half-inhibitory concentration (IC50) on yeast α-glucosidase (setting [4]) worked out at 43.5 ± 0.7 µM.
The molecule `Cc1cccc(C)c1NC(=O)Cn1cc(CNC(=O)c2cc3ccccc3[nH]2)nn1` [Compound 5e, N-((1-(2-((2,6-dimethylphenyl)amino)-2-oxoethyl)-1H-1,2,3-triazol-4-yl)methyl)-1H-indole-2-carboxamide] yielded a melting point of 208 to 210 °C. Moreover, at yeast α-glucosidase (setting [4]), the IC50 was 111 ± 1.6 µM.
`O=C(Cn1cc(CNC(=O)c2cc3ccccc3[nH]2)nn1)Nc1cccc(Cl)c1` [Compound 5h, N-((1-(2-((3-chlorophenyl)amino)-2-oxoethyl)-1H-1,2,3-triazol-4-yl)methyl)-1H-indole-2-carboxamide]: the melting point is 211 to 213 °C.
`Cc1ccc(NC(=O)Cn2cc(CNC(=O)c3cc4ccccc4[nH]3)nn2)cc1` [Compound 5c, N-((1-(2-oxo-2-(p-tolylamino)ethyl)-1H-1,2,3-triazol-4-yl)methyl)-1H-indole-2-carboxamide] yielded a melting point of 231 to 233 °C. The concentration for half-maximal inhibition (IC50) against yeast α-glucosidase was determined as 42.6 ± 0.9 µM.
Molecule `O=C(Cn1cc(CNC(=O)c2cc3ccccc3[nH]2)nn1)Nc1ccc(Br)cc1` [Compound 5k, N-((1-(2-((4-bromophenyl)amino)-2-oxoethyl)-1H-1,2,3-triazol-4-yl)methyl)-1H-indole-2-carboxamide] yielded a melting point of 236 to 238 °C. Besides, the type of inhibition result on α-glucosidase [3] (Lineweaver–Burk plot, Vmax constant, Km increased) is listed as “competitive type of inhibition; also recorded: competitive inhibitor”. The molecule also had a Ki at α-glucosidase [3] (secondary plot of Lineweaver–Burk plots) of 26 µM. Besides, the IC50 on yeast α-glucosidase was found to be 26.8 ± 0.5 µM. Besides, at yeast α-glucosidase (ratio of α-glucosidase IC50 values, acarbose vs compound), the “improvement in the inhibition effect in comparison to standard inhibitor acarbose” value is on record as around 28 fold. For the same molecule, in data set [1], the half-maximal inhibitory concentration (IC50) is above 150 µM.
Molecule `O=C(Cn1cc(CNC(=O)c2cc3ccccc3[nH]2)nn1)Nc1ccc(Cl)cc1` [Compound 5i, N-((1-(2-((4-chlorophenyl)amino)-2-oxoethyl)-1H-1,2,3-triazol-4-yl)methyl)-1H-indole-2-carboxamide] yielded a melting point of 225 to 227 °C. At yeast α-glucosidase, this molecule displayed an IC50 of 83 ± 1.6 µM.
In the case of `O=C(Cn1cc(CNC(=O)c2c3ccccc3nc3ccccc23)nn1)Nc1ccccc1` [Compounds A, R = H], the concentration for half-maximal inhibition (IC50) on α-glucosidase [2] was 171 ± 2.1 µM.
As to `CCc1ccc(NC(=O)Cn2cc(CNC(=O)c3cc4ccccc4[nH]3)nn2)cc1` [Compound 5f, N-((1-(2-((4-ethylphenyl)amino)-2-oxoethyl)-1H-1,2,3-triazol-4-yl)methyl)-1H-indole-2-carboxamide], the melting point lay in the range of 203 to 205 °C. In addition, the half-maximal inhibitory concentration (IC50) on yeast α-glucosidase (setting [4]) turned out to be 40.2 ± 1.6 µM. Besides, the concentration for half-maximal inhibition (IC50) in data set [1] was above 150 µM.
In the case of `O=C(Cn1cc(CNC(=O)c2cc3ccccc3[nH]2)nn1)Nc1cccc([N+](=O)[O-])c1` [Compound 5l, N-((1-(2-((3-nitrophenyl)amino)-2-oxoethyl)-1H-1,2,3-triazol-4-yl)methyl)-1H-indole-2-carboxamide], the melting point lay within 254 to 256 °C. Moreover, at yeast α-glucosidase (setting [4]), the IC50 came to 110.3 ± 0.6 µM.
Turning to `O=C(Cn1cc(CNC(=O)c2cc3ccccc3[nH]2)nn1)Nc1ccc([N+](=O)[O-])cc1` [Compound 5m, N-((1-(2-((4-nitrophenyl)amino)-2-oxoethyl)-1H-1,2,3-triazol-4-yl)methyl)-1H-indole-2-carboxamide], the melting point is 259 to 261 °C. For the same molecule, the concentration for half-maximal inhibition (IC50) at yeast α-glucosidase (setting [4]) worked out at 78.8 ± 0.3 µM.
